Molecules are shown by their SMILES.

One experiment concerns A549. As to the kind of experiment: Cytotoxicity against human A549 cells after 24 hrs by MTS assay. It is filed as functional, cell-based. Conditions: A549, 24 h. (Formazan colour is commonly taken as a measure of viable cells.)
A further experiment has as its system MCF7. As to the kind of experiment: Cytotoxicity against human MCF7 cells after 24 hrs by MTS assay. It is filed as functional, cell-based. Conditions: MCF7, 24 h.
Experiment [1] concerns the target T1, Tyrosine-protein phosphatase non-receptor type 1 (Homo sapiens, UniProt P18031).
T1 sequence (P18031 whole entry): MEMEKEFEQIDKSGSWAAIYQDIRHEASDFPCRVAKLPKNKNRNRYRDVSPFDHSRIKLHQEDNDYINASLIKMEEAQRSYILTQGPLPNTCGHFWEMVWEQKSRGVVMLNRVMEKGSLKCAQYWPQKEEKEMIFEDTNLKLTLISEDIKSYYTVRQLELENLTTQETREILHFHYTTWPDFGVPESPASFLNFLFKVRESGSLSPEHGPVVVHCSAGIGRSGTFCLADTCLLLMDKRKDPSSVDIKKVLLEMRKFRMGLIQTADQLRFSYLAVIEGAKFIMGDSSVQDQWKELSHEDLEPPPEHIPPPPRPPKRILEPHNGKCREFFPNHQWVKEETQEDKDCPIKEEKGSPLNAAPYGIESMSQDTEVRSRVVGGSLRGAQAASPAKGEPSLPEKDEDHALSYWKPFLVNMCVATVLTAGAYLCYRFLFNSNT
As to the kind of experiment: Inhibition of recombinant human GST-tagged PTP1B catalytic domain using para-nitrophenyl phosphate as substrate.

Turning to `C=C1C(=O)O[C@H]2[C@H]1[C@H](OC(C)=O)C/C(C)=C/CC[C@@]1(C)O[C@@H]21`, the IC50 is 7.3 µM with A549 and 1.5 µM in the experiment on MCF7.

Take `CC[C@]1(O)C(=O)O[C@H]2[C@H]1[C@H](OC(C)=O)C/C(C)=C/CC[C@@]1(C)O[C@@H]21`: the 50% inhibitory concentration (IC50) in the experiment with A549 is greater than 200 µM; in the experiment on MCF7, 45.7 µM.

Take `CC(=O)CC[C@@H]1C[C@@]2(OC1(C)C)C(=O)CC[C@@]2(C)O`: in experiment [1], the IC50 amounted to 46.3 µM.

With `COc1cccc2c1C(=O)c1c(O)c3c(c(O)c1C2=O)C[C@@](O)(C(=O)CO)C[C@@H]3O[C@H]1C[C@H](N)[C@H](O)[C@H](C)O1` [DOXORUBICIN], the IC50 in the experiment with A549 amounted to 0.21 µM.

The IC50 is the concentration that gives 50% inhibition.
